Consider six compounds from doi:10.1101/2023.11.24.568596v1 (biorxiv, 2023).

The structures appear in SMILES notation.

What all share (settings): binder
The target of assay [1] is CaMK1g (Homo sapiens, UniProt Q96NX5).
In assay [2] the target is T1, DRAK2 (Homo sapiens, UniProt O94768).
T1 sequence (O94768 1-372): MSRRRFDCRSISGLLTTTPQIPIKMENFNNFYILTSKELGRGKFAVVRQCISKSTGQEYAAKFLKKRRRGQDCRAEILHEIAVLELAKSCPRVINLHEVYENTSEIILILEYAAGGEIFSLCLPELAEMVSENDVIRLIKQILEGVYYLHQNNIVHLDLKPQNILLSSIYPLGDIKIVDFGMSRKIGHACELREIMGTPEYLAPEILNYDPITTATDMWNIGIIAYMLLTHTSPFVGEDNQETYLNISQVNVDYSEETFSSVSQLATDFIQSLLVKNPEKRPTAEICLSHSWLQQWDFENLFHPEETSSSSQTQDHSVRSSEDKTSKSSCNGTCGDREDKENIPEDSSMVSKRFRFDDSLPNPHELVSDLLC

Assay [3] has as its target T2, DYRK2 (Homo sapiens, UniProt Q92630).
T2 sequence (Q92630 1-601): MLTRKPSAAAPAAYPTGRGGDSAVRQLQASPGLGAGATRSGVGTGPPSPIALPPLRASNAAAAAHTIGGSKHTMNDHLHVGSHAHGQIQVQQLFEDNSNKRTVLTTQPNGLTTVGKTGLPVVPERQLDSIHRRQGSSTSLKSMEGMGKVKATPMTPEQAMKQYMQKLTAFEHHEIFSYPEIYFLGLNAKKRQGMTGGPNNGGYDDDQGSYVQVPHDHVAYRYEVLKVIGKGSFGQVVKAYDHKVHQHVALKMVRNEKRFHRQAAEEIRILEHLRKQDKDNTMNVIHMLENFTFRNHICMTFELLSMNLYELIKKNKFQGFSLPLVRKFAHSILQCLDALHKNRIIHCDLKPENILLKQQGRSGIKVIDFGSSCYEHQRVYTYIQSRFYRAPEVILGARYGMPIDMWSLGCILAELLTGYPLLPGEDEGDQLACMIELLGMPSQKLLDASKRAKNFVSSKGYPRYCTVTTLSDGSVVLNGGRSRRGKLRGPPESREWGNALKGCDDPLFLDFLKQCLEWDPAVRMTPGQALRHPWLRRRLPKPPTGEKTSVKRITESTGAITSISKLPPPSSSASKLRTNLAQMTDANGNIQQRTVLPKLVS

The target in assay [4] is EphA2 (Homo sapiens, UniProt P29317).
Assay [5] concerns the target Erk2 (Homo sapiens, UniProt P28482).
For assay [6], the target named is JNK1 (Homo sapiens, UniProt P45983).
Chain of JNK1 (P45983 whole entry): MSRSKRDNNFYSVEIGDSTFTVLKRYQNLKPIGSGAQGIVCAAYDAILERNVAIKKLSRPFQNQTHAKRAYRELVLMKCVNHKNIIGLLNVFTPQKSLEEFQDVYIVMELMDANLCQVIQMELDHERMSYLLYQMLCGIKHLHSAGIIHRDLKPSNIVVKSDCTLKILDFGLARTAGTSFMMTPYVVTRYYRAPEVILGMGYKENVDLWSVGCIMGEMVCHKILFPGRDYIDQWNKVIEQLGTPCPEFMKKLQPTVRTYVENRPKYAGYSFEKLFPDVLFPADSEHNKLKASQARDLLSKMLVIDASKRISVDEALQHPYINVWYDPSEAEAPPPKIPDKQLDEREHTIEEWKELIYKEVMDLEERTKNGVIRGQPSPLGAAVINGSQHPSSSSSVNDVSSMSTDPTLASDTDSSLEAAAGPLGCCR
Assay [7] has as its target MELK (Homo sapiens, UniProt Q14680).
The target in assay [8] is MRCKa (Homo sapiens, UniProt Q5VT25).
Chain of MRCKa (Q5VT25 whole entry): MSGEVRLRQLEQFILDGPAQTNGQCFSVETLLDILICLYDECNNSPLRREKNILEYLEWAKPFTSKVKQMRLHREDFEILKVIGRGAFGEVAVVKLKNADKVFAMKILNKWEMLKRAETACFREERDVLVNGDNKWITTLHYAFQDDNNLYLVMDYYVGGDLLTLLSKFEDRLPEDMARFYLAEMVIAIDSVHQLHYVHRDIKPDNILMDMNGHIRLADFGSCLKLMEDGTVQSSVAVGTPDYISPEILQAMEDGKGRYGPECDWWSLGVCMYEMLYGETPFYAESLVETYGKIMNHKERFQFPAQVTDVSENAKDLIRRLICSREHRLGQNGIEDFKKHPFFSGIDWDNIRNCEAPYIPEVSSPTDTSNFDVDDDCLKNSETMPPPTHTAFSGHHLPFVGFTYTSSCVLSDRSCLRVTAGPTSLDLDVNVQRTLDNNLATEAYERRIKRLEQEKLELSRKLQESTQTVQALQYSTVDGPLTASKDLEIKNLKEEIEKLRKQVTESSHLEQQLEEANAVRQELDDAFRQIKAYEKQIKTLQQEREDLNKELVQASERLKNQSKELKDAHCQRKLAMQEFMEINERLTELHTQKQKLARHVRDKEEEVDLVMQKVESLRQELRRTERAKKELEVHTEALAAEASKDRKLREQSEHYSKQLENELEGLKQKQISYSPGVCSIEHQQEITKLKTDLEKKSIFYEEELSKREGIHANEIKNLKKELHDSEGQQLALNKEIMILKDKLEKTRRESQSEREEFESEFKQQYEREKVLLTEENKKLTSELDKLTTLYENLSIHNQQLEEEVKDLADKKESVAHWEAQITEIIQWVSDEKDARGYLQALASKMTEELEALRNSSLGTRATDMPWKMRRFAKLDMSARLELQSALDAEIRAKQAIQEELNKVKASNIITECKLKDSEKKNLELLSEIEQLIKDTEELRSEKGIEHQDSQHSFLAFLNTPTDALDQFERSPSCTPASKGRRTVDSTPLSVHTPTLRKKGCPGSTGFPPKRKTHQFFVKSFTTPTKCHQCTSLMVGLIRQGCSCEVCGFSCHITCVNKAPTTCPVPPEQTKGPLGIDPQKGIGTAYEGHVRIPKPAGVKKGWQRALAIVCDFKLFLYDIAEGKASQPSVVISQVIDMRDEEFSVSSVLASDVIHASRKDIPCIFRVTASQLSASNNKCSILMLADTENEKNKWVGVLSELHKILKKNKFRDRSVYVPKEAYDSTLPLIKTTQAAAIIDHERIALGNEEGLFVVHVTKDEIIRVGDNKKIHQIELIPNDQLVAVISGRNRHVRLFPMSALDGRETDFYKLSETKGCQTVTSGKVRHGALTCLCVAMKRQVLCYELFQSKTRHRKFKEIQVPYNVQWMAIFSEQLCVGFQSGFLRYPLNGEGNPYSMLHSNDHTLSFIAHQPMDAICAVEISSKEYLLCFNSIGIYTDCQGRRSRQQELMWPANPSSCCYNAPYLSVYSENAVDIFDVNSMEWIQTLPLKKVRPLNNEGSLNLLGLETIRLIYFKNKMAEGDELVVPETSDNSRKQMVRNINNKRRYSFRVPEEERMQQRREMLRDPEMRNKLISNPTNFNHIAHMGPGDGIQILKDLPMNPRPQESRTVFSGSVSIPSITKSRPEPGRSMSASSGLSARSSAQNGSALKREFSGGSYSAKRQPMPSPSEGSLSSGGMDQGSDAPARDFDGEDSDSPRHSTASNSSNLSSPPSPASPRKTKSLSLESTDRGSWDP
Assay [9] deals with OSR1 (Homo sapiens, UniProt O95747).
Chain of OSR1 (O95747 whole entry): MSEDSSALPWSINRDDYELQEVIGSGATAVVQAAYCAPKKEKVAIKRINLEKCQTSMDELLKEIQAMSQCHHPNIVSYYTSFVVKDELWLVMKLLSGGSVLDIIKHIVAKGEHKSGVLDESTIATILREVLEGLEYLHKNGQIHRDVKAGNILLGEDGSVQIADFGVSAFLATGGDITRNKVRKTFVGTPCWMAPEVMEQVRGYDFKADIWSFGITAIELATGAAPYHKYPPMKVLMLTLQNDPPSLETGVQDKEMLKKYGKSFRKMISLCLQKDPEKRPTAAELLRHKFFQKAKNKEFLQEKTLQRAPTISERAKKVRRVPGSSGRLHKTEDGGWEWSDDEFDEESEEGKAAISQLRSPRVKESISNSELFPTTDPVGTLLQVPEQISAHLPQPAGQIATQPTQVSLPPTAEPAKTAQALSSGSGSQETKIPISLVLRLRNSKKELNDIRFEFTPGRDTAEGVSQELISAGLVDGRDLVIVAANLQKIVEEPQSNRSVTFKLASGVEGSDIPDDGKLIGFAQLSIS
Assay [10] has as its target PAK4 (Homo sapiens, UniProt O96013).
Assay [11] addresses PIM1 (Homo sapiens, UniProt P11309).
Assay [12] concerns the target T3, PLK4 (Homo sapiens, UniProt O00444).
T3 sequence (O00444 1-970): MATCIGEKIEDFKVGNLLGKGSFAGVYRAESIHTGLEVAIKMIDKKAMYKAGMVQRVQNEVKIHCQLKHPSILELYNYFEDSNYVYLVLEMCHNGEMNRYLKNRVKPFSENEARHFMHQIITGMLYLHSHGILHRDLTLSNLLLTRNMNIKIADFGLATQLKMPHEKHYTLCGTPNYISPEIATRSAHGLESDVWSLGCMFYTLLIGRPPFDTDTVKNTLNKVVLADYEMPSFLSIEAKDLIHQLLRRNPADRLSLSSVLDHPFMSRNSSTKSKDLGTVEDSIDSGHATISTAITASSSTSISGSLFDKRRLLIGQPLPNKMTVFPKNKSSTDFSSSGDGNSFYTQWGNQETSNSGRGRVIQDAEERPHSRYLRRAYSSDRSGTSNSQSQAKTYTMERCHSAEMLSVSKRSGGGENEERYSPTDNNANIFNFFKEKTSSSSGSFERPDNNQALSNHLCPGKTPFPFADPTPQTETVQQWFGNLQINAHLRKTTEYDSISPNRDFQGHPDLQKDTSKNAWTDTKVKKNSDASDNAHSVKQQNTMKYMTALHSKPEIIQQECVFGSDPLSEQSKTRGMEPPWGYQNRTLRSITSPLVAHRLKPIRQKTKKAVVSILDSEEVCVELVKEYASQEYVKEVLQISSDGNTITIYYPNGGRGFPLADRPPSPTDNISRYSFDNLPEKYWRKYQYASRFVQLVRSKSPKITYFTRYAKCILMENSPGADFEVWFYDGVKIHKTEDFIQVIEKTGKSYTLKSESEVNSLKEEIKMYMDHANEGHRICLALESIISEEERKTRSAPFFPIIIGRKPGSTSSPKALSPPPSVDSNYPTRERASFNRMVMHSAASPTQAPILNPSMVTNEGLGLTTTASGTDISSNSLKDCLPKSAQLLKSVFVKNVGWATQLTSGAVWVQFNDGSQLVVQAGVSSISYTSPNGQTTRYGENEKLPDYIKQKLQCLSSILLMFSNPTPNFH

The target of assay [13] is p38a (Homo sapiens, UniProt Q16539).
Chain of p38a (Q16539 whole entry): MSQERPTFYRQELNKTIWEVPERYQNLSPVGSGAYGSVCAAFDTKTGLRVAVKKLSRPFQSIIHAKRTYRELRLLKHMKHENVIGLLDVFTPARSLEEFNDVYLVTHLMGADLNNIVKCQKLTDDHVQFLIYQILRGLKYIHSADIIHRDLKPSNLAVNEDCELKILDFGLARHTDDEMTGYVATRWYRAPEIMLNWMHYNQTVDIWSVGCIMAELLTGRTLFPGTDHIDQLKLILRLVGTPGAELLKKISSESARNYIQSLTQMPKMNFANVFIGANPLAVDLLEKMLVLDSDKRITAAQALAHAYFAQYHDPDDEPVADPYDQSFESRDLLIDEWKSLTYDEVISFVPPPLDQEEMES

Chain of PIM1 (P11309 whole entry): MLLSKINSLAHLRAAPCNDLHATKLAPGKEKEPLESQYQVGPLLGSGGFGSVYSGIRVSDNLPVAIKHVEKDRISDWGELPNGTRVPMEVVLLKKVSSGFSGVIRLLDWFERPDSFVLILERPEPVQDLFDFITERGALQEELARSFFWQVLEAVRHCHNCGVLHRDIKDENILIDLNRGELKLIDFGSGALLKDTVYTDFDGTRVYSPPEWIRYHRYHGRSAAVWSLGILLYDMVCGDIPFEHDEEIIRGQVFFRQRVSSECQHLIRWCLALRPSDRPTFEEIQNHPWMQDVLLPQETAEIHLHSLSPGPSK
Chain of MELK (Q14680 whole entry): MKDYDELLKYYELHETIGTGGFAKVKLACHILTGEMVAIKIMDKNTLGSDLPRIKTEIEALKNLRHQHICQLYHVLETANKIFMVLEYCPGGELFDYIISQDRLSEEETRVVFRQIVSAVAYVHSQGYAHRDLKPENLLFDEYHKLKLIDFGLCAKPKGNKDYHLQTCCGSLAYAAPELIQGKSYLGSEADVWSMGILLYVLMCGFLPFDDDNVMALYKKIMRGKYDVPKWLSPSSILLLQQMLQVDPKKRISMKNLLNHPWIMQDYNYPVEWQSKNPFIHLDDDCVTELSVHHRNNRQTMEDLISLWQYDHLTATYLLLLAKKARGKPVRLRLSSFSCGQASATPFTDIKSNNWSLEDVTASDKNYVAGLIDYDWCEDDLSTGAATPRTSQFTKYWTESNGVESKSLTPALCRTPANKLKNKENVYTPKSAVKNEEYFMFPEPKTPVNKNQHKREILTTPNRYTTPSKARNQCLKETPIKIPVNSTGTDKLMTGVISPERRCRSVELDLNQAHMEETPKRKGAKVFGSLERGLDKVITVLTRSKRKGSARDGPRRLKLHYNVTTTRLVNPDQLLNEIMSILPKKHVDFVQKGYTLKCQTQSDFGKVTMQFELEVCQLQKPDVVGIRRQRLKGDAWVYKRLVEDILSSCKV
Chain of PAK4 (O96013 whole entry): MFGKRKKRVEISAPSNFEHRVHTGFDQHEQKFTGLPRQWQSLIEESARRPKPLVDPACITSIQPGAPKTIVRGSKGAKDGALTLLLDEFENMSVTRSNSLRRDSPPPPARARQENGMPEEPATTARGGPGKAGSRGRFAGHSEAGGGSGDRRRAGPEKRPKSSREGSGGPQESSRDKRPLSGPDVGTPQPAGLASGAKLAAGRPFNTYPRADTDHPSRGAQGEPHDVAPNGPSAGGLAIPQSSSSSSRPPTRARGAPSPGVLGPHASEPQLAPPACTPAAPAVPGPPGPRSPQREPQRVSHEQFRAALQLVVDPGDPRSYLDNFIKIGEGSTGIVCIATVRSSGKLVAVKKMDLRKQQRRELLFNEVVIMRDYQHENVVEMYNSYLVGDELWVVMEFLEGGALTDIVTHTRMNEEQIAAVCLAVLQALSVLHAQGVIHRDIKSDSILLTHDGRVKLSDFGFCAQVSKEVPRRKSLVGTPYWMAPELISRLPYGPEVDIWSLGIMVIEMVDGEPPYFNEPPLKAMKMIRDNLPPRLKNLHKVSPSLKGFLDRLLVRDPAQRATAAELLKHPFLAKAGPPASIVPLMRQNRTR
Chain of Erk2 (P28482 whole entry): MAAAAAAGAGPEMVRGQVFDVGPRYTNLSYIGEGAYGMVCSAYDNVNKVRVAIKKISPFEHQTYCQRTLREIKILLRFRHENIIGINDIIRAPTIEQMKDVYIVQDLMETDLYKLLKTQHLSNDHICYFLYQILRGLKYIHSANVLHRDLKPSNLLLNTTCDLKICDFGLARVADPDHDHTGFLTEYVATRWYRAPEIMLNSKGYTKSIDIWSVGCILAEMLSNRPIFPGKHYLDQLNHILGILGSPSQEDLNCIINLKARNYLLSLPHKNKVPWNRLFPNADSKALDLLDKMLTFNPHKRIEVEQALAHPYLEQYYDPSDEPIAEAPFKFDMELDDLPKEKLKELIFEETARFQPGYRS

As for `Cc1cccc(-c2ccc(-c3cc4cnc(NCCCc5ccc(N)cc5)nc4n(CCCCN)c3=O)c(Cl)c2)n1` [compound 25, 8-(4-Aminobutyl)-2-((3-(4-aminophenyl)propyl)amino)-6-(2-chloro-4-(6-methylpyridin-2-yl)phenyl)pyrido[2,3-d]pyrimidin-7(8H)-one], the “ΔTm 25” value was 6.5 °C in assay [1]; 7.5 °C in assay [2]; -0.6 °C in [3]; 3.3 °C in assay [4]; 3.1 °C in [5]; 4.5 °C in assay [6]. The “ΔTm 25” value was found to be 2.4 °C in assay [7]; 0.0 °C in assay [8]; 0.4 °C in [9]; 5.5 °C in [10]; 0.3 °C in assay [11]; 6.7 °C in [12]. Besides, the “ΔTm 25” value in assay [13] was found to be 6.1 °C.

As to `Cc1cccc(-c2ccc(-c3cc4cnc(NC(CO)CO)nc4n(CCCCN)c3=O)c(Cl)c2)n1` [compound 24, 8-(4-Aminobutyl)-6-(2-chloro-4-(6-methylpyridin-2-yl)phenyl)-2-((1,3-dihydroxypropan-2-yl)amino)pyrido[2,3-d]pyrimidin-7(8H)-one], the “ΔTm MR24 (24)” value in assay [1] is 1.4 °C; in assay [2], 2.9 °C; in assay [3], -0.3 °C; in [4] it was 0.6 °C; in assay [5], -0.9 °C; in [6] it was 0.7 °C. Moreover, the “ΔTm MR24 (24)” value was 5.5 °C in [7]; -0.7 °C in assay [8]; -0.5 °C in assay [9]; 2.2 °C in [10]; 0.5 °C in assay [11]; 1.3 °C in assay [12]. Besides, in assay [13], the “ΔTm MR24 (24)” value is 2.8 °C.

As for `CNc1ncc2cc(-c3ccc(-c4cccc(C)n4)cc3Cl)c(=O)n(C[C@H]3CC[C@H](N)CC3)c2n1` [compound 23, 23], the “ΔTm 23” value was 9.5 °C in [1]; 1.7 °C in assay [2]; -0.2 °C in [3]; 3.2 °C in assay [4]; 2.7 °C in assay [5]; 4.5 °C in assay [6]. Besides, the “ΔTm 23” value in assay [7] is 10.4 °C; in assay [8], 2.9 °C; in assay [9] it was 2.3 °C; in [10], 4.5 °C; in [11], -0.7 °C; in assay [12] it was 7.1 °C. Moreover, the “ΔTm 23” value in assay [13] amounted to 6.7 °C.

Regarding `Cc1cccc(-c2ccc(-c3cc4cnc(NCCCN5CCOCC5)nc4n(CCCCN)c3=O)c(Cl)c2)n1` [compound 26, MR26], the “ΔTm MR26 (26)” value is 4.3 °C in [1]; 5.1 °C in assay [2]; -0.2 °C in assay [3]; 4.2 °C in [4]; 0.2 °C in assay [5]; 0.8 °C in [6]. Further, the “ΔTm MR26 (26)” value is 5.0 °C in [7]; -0.2 °C in [8]; -0.1 °C in assay [9]; 2.4 °C in assay [10]; 0.3 °C in [11]; 5.1 °C in [12]. Besides, the “ΔTm MR26 (26)” value in assay [13] was 4.0 °C.

Regarding `CNc1ncc2cc(-c3ccc(-c4cccc(C)n4)cc3Cl)c(=O)n(CCC3CCNCC3)c2n1` [compound 22, 6-(2-Chloro-4-(6-methylpyridin-2-yl)phenyl)-2-(methylamino)-8-(2-(piperidin-4-yl)ethyl)pyrido[2,3-d]pyrimidin-7(8H)-one], the “ΔTm 22” value in assay [1] was 5.1 °C; in assay [2], 2.7 °C; in [3] it was -0.4 °C; in assay [4] it was 2.3 °C; in assay [5], 2.8 °C; in assay [6], 4.0 °C. Besides, the “ΔTm 22” value was 8.5 °C in [7]; 1.8 °C in assay [8]; 0.7 °C in [9]; 4.7 °C in assay [10]; -0.4 °C in [11]; 7.3 °C in [12]. For the same compound, in assay [13], the “ΔTm 22” value was 0.7 °C.

As for `CNc1ncc2cc(-c3ccc(-c4cccc(C)n4)cc3Cl)c(=O)n(CCCCN)c2n1` [compound 20, MRLW5], the “ΔTm MRLW5 (20)” value was 3.9 °C in assay [1]; 0.7 °C in assay [2]; -0.1 °C in assay [3]; 3.5 °C in [4]; 1.3 °C in [5]; 4.2 °C in assay [6]. For the same compound, the “ΔTm MRLW5 (20)” value in assay [7] was 8.0 °C; in assay [8] it was 1.0 °C; in assay [9], 1.6 °C; in assay [10], 4.8 °C; in assay [11], -0.1 °C; in assay [12], 5.2 °C. Also, the “ΔTm MRLW5 (20)” value in assay [13] worked out at 1.0 °C.
